Data from patent US20250120967A1, “TYROSINE KINASES INHIBITORS AND USES THEREOF” (GREAT NOVEL THERAPEUTICS BIOTECH & MEDICALS CORPORATION, priority 2023, published 2025).

Tests used:
ERBB2 (HER2) = ERBB2 (HER2) (Homo sapiens, UniProt P04626); assay: Tyrosine kinase inhibition assay; format: biochemical; details: single concentration 1.0 μM, read-out: percent inhibition
Experimental: (§1) Tyrosine kinase inhibition assays were performed at ThermoFisher Life Technologies (Madison, WI, USA) using standard protocols (SelectScreen Biochemical Profiling Service, Thermo Fisher Scientific). ATP concentrations used were at the apparent Km. Test compounds were screened in 1% dimethylsulffoxide (DMSO) (final concentration) in the well. For 10-point titrations, 3-fold serial dilutions were conducted from the starting concentration of […]. All Peptide/Kinase Mixtures were diluted to a 2× working concentration in the appropriate Kinase Buffer. All ATP Solutions were diluted to a 4× working concentration in Kinase Buffer (50 mM HEPES pH 7.5, 0.01% BRIJ-35, 10 mM MgCl2, 1 mM EGTA). The apparent ATP Km was previously determined using a Z′-LYTE assay. The Development Reagent was diluted in Development Buffer.
(§2) The inhibition activities of compounds were determined in biochemical assays using single concentration (1.0 μM) measurements. The results were provided as percent inhibition values. A compound displaying a percent inhibition value of greater 80% was defined as a hit. 99 different tyrosine kinases were used.

FYN A = FYN A (Homo sapiens, UniProt P06241); assay: Tyrosine kinase inhibition assay; format: biochemical; details: single concentration 1.0 μM, read-out: percent inhibition
Chain of FYN A (P06241 whole entry): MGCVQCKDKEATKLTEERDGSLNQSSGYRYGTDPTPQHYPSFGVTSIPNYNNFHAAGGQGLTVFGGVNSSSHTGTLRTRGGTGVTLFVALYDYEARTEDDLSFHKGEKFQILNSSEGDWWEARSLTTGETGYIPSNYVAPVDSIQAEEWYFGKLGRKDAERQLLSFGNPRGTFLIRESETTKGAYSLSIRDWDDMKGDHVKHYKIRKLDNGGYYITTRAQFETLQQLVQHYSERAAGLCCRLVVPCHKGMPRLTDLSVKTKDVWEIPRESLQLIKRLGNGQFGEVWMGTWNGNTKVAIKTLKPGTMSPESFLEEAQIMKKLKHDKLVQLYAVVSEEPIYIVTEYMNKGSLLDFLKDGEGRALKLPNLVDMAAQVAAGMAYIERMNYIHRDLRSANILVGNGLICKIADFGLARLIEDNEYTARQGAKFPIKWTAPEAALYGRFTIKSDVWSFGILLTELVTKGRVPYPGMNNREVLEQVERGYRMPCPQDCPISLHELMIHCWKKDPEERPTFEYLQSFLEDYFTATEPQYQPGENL
Experimental: as §1, §2

AKT3 (PKB gamma) = AKT3 (PKB gamma) (Homo sapiens, UniProt Q9Y243); assay: Tyrosine kinase inhibition assay; format: biochemical; details: single concentration 1.0 μM, read-out: percent inhibition
Chain of AKT3 (PKB gamma) (Q9Y243 whole entry): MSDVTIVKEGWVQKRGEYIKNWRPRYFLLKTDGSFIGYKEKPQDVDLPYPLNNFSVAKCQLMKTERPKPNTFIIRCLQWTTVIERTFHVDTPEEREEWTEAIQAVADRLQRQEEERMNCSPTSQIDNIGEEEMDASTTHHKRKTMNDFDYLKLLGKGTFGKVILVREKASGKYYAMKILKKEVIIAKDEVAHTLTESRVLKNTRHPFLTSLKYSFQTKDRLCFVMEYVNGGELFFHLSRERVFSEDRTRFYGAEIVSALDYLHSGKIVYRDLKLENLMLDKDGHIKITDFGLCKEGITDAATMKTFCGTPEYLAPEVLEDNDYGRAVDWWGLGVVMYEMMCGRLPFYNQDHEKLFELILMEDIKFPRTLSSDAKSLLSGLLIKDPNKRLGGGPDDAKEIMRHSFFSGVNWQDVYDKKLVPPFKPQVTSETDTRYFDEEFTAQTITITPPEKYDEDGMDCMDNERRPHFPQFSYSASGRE
Experimental: as §1, §2

DDR1 = DDR1 (Homo sapiens, UniProt Q08345); assay: Tyrosine kinase inhibition assay; format: biochemical; details: single concentration 1.0 μM, read-out: percent inhibition
Chain of DDR1 (Q08345 19-913): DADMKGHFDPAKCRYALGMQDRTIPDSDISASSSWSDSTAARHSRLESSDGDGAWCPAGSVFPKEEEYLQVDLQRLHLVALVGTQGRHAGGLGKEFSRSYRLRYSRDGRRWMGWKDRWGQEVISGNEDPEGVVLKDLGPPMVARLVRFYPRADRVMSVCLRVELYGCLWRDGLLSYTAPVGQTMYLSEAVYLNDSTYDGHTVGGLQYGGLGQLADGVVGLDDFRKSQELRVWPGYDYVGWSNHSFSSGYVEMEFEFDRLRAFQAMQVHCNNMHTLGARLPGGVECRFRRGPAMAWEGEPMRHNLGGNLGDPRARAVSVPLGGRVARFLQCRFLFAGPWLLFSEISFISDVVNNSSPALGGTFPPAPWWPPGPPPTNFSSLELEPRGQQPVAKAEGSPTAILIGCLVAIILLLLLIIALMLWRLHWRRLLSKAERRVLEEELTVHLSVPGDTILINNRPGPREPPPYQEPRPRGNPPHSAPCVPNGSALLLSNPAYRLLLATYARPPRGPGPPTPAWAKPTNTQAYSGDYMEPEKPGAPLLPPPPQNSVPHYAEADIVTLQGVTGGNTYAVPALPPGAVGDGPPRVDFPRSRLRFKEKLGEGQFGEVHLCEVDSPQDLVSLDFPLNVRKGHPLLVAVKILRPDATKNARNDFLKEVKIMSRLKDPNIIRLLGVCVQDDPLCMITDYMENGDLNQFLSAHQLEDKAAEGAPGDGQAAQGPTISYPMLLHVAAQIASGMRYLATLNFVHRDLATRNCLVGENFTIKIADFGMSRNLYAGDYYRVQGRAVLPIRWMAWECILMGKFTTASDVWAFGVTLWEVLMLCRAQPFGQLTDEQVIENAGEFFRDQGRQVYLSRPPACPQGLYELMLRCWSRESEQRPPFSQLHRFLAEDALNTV
Experimental: as §1, §2

ERBB4 (HER4) = ERBB4 (HER4) (Homo sapiens, UniProt Q15303); assay: Tyrosine kinase inhibition assay; format: biochemical; details: single concentration 1.0 μM, read-out: percent inhibition
Chain of ERBB4 (HER4) (Q15303 26-1308): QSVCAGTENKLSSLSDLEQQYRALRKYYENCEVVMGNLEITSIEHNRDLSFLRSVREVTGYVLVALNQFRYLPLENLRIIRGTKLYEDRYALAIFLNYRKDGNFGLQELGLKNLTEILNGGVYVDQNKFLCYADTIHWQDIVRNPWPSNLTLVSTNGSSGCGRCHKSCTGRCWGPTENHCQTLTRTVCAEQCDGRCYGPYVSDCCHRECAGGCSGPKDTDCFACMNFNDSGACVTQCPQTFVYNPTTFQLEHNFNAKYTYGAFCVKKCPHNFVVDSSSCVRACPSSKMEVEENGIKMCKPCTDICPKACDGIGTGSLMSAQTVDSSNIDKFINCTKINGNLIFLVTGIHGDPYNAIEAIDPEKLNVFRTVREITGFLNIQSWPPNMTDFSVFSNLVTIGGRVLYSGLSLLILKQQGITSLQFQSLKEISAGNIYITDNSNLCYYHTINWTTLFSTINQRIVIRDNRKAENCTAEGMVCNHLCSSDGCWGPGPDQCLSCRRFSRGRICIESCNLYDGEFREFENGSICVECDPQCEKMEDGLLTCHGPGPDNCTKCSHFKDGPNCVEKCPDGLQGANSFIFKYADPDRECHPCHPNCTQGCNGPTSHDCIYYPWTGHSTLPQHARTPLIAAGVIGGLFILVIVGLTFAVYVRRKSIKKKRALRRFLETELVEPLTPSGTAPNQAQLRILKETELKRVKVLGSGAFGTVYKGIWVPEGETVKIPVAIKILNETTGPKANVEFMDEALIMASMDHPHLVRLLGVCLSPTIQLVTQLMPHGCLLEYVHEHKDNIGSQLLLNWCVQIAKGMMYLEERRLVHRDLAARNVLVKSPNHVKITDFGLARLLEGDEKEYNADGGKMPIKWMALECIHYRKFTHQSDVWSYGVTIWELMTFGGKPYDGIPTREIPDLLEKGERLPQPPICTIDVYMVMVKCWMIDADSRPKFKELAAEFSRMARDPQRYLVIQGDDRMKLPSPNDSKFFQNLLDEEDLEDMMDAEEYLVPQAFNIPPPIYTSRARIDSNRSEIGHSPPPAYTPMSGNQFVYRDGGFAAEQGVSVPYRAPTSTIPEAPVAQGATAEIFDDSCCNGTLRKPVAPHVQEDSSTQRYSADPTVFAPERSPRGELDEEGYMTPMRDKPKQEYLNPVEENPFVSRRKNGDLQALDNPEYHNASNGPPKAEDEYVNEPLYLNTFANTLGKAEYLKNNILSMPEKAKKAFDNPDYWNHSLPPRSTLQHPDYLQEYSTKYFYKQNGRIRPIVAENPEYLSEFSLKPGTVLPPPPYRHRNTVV
Experimental: as §1, §2

EPHA8 = molecular target: T1, EPHA8 (Homo sapiens, UniProt P29322); assay: Tyrosine kinase inhibition assay; format: biochemical; details: single concentration 1.0 μM, read-out: percent inhibition
T1 sequence (P29322 28-1005): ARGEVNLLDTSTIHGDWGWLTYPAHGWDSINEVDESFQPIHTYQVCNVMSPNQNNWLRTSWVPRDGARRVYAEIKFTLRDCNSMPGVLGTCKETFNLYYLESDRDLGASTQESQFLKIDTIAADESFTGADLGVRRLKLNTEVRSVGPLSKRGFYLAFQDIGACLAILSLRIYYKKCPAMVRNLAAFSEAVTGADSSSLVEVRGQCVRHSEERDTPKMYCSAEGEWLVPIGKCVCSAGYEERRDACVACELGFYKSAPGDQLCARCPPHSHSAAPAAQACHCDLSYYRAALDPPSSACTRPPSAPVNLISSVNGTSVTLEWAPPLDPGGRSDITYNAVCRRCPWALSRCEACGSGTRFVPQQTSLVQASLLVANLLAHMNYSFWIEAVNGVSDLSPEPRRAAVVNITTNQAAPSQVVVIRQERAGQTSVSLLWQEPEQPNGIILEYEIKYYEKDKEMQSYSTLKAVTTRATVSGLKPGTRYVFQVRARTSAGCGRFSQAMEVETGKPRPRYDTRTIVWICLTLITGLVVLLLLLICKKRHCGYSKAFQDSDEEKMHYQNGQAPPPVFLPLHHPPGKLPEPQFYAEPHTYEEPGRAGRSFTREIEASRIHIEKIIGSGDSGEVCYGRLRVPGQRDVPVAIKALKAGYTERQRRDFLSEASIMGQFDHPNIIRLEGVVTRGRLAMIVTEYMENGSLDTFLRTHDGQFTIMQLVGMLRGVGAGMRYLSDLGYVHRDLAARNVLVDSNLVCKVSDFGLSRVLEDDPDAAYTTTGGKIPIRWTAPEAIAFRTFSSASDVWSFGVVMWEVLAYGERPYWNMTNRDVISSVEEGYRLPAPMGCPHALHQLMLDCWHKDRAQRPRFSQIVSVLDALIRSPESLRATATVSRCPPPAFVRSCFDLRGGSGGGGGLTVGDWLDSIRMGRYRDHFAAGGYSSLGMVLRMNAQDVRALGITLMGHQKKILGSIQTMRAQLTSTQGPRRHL
Experimental: as §1, §2

ZAP70 = molecular target: T2, ZAP70 (Homo sapiens, UniProt P43403); assay: Tyrosine kinase inhibition assay; format: biochemical; details: single concentration 1.0 μM, read-out: percent inhibition
T2 sequence (P43403 1-619): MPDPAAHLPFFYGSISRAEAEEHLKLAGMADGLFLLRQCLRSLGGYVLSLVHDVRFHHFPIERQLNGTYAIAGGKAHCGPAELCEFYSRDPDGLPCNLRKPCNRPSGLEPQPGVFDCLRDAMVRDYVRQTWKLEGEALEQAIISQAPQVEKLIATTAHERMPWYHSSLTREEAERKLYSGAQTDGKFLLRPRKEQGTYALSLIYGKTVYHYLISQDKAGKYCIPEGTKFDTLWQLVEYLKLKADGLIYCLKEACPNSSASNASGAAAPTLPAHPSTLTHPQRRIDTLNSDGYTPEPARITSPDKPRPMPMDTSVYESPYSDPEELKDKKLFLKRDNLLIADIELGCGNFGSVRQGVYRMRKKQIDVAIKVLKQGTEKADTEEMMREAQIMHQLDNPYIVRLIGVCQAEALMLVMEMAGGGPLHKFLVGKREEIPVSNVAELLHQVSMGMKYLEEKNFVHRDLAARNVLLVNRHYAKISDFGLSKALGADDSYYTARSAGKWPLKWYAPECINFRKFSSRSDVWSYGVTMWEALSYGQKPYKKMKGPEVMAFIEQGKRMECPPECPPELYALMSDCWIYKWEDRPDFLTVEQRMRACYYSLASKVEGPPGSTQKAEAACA
Experimental: as §1, §2

BLK = BLK (Homo sapiens, UniProt P51451); assay: Tyrosine kinase inhibition assay; format: biochemical; details: single concentration 1.0 μM, read-out: percent inhibition
Chain of BLK (P51451 whole entry): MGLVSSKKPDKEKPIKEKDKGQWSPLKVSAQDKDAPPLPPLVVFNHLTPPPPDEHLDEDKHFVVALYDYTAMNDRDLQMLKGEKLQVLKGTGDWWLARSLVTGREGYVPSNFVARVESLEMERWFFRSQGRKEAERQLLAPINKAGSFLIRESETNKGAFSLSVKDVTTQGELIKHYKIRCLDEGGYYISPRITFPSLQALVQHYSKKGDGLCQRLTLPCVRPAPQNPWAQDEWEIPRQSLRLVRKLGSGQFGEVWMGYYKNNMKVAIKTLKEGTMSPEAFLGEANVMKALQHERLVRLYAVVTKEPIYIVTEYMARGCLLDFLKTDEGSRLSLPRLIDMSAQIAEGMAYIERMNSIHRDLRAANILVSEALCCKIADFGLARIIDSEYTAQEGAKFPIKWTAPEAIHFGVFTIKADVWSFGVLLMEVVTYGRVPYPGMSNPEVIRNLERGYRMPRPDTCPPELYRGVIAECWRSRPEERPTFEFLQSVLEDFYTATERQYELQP
Experimental: as §1, §2

BRAF V599E = BRAF V599E (Homo sapiens, UniProt P15056, V600E); assay: Tyrosine kinase inhibition assay; format: biochemical; details: single concentration 1.0 μM, read-out: percent inhibition
Experimental: as §1, §2

CT26 tumor = assay: Experimental tumor model and therapies, CT26 tumor-bearing mice;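 note: male Balb/c mice bearing CT26 grafts in the back, treated once tumors reached roughly 250–300 mm^3, tumor volume measured twice weekly, response graded by fold growth after treatment end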
Experimental: LLC1 was grown at 37° C. under humidified air supplemented with CO2 in DMEM (#10-013-CM, Corning®) containing 10% heat inactivated fetal calf serum, and 1× concentration of MycoZap Antibiotics. CT26 was grown at 37° C. under humidified air supplemented with CO2 in RPMI1640 (cat. #10-040-CM, Corning®) containing 10% heat inactivated fetal calf serum, and 1× concentration of MycoZap Antibiotics. After the cancer cell culture was completed, it was implanted (1×10^6 cells/mouse) into the back of the mouse for growth.
Six- to eight-week-old male Balb/c mice (National Laboratory Animal Center, Taiwan) were used for all animal experiments. […] Tumors were allowed to grow for 10-12 days (tumor size about 250-300 mm^3) before randomization and treatment. The tumor volume of the mice was measured once every three or four days (twice/week). Animals were euthanized when tumors reached more than 3000 mm^3 in diameter. […] Relapse/recurrence was defined as when tumor growth reappeared and tumor size reached at least 5 fold in mice with CR or PR response after secondary tumor assessment. In this study, we defined Complete Response (CR, <0.5 time tumor growth in the tumor bearing mice at tumor assessment after the end of treatment); Partial Response (PR, tumor size ≥0.5 time tumor growth, but <1 time tumor growth in the tumor bearing mice at tumor assessment after the end of treatment); Stable Disease (SD, ≥1 time tumor growth, but <5 times tumor growth in the tumor bearing mice at tumor assessment after the end of treatment); and Progressive Disease (PD, ≥5 times tumor growth in the tumor bearing mice at tumor assessment after the end of treatment) for the evaluation of treatment efficacy.

[1] = FIG. 2E, oral once daily, Cabozantinib 30 mg/kg, Cbo-02 30 mg/kg, Chidamide-K30 50 mg/kg
[2] = FIG. 3E, oral 12 days, Cabozantinib 30 mg/kg, Cbo-20 30 mg/kg, GNTbm-38-K30 40 mg/kg
[3] = FIG. 6E, Cbo-23 30 mg/kg, Cabozantinib 30 mg/kg, GNTbm-38-K30 20 mg/kg
[4] = FIG. 6F, Cbo-23 30 mg/kg, Cabozantinib 30 mg/kg, GNTbm-38-K30 20 mg/kg
[5] = FIG. 5E, Cbo-23 30 mg/kg, Regorafenib 30 mg/kg, GNTbm-38-K30 20 mg/kg in combination, 5 mg/kg alone

Chain of ERBB2 (HER2) (P04626 23-1255): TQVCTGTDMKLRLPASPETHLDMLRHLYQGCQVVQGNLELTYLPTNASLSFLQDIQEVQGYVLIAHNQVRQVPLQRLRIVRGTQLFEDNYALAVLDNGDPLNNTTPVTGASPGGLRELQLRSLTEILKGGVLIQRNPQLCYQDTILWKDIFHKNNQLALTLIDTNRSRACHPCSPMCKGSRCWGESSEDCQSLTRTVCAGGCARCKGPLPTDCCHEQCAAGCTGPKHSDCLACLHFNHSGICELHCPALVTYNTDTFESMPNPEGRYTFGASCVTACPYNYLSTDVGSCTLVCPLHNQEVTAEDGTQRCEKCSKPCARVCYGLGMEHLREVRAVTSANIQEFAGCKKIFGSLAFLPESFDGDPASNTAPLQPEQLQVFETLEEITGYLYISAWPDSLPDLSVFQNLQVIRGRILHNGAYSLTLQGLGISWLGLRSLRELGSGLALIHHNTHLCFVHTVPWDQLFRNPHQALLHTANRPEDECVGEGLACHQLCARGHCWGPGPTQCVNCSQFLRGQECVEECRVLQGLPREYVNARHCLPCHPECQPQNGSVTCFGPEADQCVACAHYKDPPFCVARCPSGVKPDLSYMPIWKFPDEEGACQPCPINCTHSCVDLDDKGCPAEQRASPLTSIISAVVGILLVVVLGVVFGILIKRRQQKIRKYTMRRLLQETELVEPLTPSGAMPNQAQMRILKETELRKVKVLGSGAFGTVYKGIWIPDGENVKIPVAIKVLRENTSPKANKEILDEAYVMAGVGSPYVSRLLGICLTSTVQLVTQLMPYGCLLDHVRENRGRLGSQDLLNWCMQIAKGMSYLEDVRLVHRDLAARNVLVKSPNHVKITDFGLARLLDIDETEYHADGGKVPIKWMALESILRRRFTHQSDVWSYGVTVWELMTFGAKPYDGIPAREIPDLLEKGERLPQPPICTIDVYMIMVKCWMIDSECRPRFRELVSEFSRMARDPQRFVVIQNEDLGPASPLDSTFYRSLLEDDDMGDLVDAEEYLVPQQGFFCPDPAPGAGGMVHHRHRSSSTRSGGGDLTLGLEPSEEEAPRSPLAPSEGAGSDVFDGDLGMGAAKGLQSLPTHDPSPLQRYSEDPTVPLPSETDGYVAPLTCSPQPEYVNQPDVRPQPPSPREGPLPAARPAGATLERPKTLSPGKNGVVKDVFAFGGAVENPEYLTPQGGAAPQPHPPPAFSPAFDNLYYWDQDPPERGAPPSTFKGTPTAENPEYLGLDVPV

Compound | inhibition at 1 µM (ERBB2 (HER2)) [%] | inhibition at 1 µM (FYN A) [%] | inhibition at 1 µM (AKT3 (PKB gamma)) [%] | inhibition at 1 µM (DDR1) [%] | inhibition at 1 µM (ERBB4 (HER4)) [%] | inhibition at 1 µM (EPHA8) [%] | inhibition at 1 µM (ZAP70) [%] | inhibition at 1 µM (BLK) [%] | inhibition at 1 µM (BRAF V599E) [%] | ORR (CT26 tumor; [1]) [%] | CR (number of mice) (CT26 tumor; [3]) | ORR (CT26 tumor; [3]) [%] | PD (number of mice) (CT26 tumor; [3]) | PR (number of mice) (CT26 tumor; [3]) | Survival Rate (CT26 tumor; [4]) [%] | other results
COc1cc2nccc(Oc3ccc(NC(=O)C4(C(=O)Nc5ccc(F)cc5)CC4)cc3)c2cc1OC [Cabozantinib, reference compound] | 17 | 74 | 8 | 100 | 35 | 104 | 13 | 83 | 24 | 0 | 3 | 44 | 2 | 1 | 33 | CR (number of mice) (CT26 tumor; [2]): 0; ORR (CT26 tumor; [2]): 0%; PD (number of mice) (CT26 tumor; [2]): 5; PR (number of mice) (CT26 tumor; [2]): 0; Survival Rate (CT26 tumor; FIG. 3F, Cabozantinib 30 mg/kg, Cbo-20 30 mg/kg, GNTbm-38-K30 40 mg/kg): 0%; ORR (CT26 tumor; FIG. 4D, Cabozantinib 30 mg/kg, Cbo-22 30 mg/kg, GNTbm-38-K30 40 mg/kg): 0%; Survival Rate (CT26 tumor; FIG. 4E, Cabozantinib 30 mg/kg, Cbo-22 30 mg/kg, GNTbm-38-K30 40 mg/kg): 0%
COc1cc2nccc(Oc3ccc(NC(=O)C4(NC(=O)c5ccc(F)cc5)CC4)cc3F)c2cc1OC [Cbo-02, N-(1-((4-((6,7-diMethoxyquinolin-4-yl)oxy)-3-fluorophenyl)carbamoyl)cyclopropyl)-4-fluorobenzamide] | 50 | 30 | 5 | 51 | 31 | 42 | 14 | 61 | 1 | 10 | – | – | – | – | – | –
COc1cc2nccc(Oc3ccc(NC(=O)C4(NC(=O)c5ccc(F)cc5)CC4)cc3F)c2cc1Oc1ccc(N)cc1F [Cbo-10] | 90 | 47 | 7 | 50 | 94 | 76 | 6 | 80 | 2 | – | – | – | – | – | – | –
COc1cc2nccc(Oc3ccc(NC(=O)C4(NC(=O)c5ccc(F)cc5)CC4)cc3F)c2cc1Oc1c(F)cc(N)cc1F [Cbo-14] | 90 | 57 | 6 | 53 | 93 | 82 | 9 | 80 | -3 | – | – | – | – | – | – | –
COc1cc2nccc(Oc3ccc(NC(=O)C4(C(=O)Nc5ccc(F)cc5)CC4)cc3F)c2cc1Oc1ccc(N)cc1F [Cbo-23] | 54 | 70 | -1 | 92 | 72 | 100 | 5 | 93 | 5 | – | 3 | 30 | 7 | 0 | 20 | CR (number of mice) (CT26 tumor; [5]): 2; ORR (CT26 tumor; [5]): 22%; PD (number of mice) (CT26 tumor; [5]): 7; PR (number of mice) (CT26 tumor; [5]): 0; Survival Rate (CT26 tumor; FIG. 5F, Cbo-23 30 mg/kg, Regorafenib 30 mg/kg, GNTbm-38-K30 20 mg/kg in combination, 5 mg/kg alone): 11%; recurrence rate (CT26 tumor; FIG. 5G, day 60, Cbo-23 30 mg/kg, Regorafenib 30 mg/kg, GNTbm-38-K30 20 mg/kg in combination, 5 mg/kg alone): 50%
